For 27 compounds, IC50 results are on record in patent US20060142247A1, “Tricyclic heterocycles” (priority 2004, published 2006).

This experiment has as its system HCT 116 cells. Briefly: Viability assay HCT 116 cells (CellTiter-Glo). The settings on record: Homo sapiens, HCT-116, 120 h, HCT 116 human colon carcinoma cells, 5 days incubation, CellTiter-Glo luminescence. It is filed as cell-based. The method in brief:
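Human colon carcinoma cells seeded at 1000/well in RPMI 1640 with GlutaMAX, FCS and Pen/Strep, incubated 24 h at 37 °C, then treated with 10 concentrations (30 μM to 0.0015 μM, 1:3). After 5 days, viability read by CellTiter-Glo ATP luminescence.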
What is called IC50 is the concentration that gives 50% inhibition. In the case of `C=CCN1C(=O)C(C)(C)c2cc3nc(-c4n[nH]c5ccccc45)[nH]c3cc21` [Example 2, 5-Allyl-2-(1H-indazol-3-yl)-7,7-dimethyl-5,7-dihydro-3H-imidazo[4,5-f]indol-6-one], half-maximal inhibition (IC50) required 0.18 µM.
With `CCN1C(=O)C(C)(C)c2cc3nc(-c4n[nH]c5ccccc45)[nH]c3cc21` [Example 3, 5-Ethyl-2-(1H-indazol-3-yl)-7,7-dimethyl-5,7-dihydro-3H-imidazo[4,5-f]indol-6-one], the half-maximal inhibitory concentration (IC50) lay in the range of 0.1 to 1 µM.
Regarding `CCCN1C(=O)C(C)(C)c2cc3nc(-c4n[nH]c5ccccc45)[nH]c3cc21` [Example 5, 2-(1H-indazol-3-yl)-7,7-dimethyl-5-propyl-5,7-dihydro-3H-imidazo[4,5-f]indol-6-one], the concentration for half-maximal inhibition (IC50) was 0.1 to 1 µM.
The result for `CC(C)N1C(=O)C(C)(C)c2cc3nc(-c4n[nH]c5ccccc45)[nH]c3cc21` [Example 6, 2-(1H-indazol-3-yl)-5-isopropyl-7,7-dimethyl-5,7-dihydro-3H-imidazo[4,5-f]indol-6-one] reads 0.1 to 1 µM; that for `CC1(C)C(=O)N(CCCN2CCOCC2)c2cc3[nH]c(-c4n[nH]c5ccccc45)nc3cc21` [Example 7, 2-(1H-indazol-3-yl)-7,7-dimethyl-5-(3-morpholin-4-yl-propyl)-5,7-dihydro-3H-imidazo[4,5-f]indol-6-one], 0.28 µM; that for `CC1(C)C(=O)Nc2cc3[nH]c(-c4n[nH]c5ccccc45)nc3cc21` [Example 8, 2-(1H-indazol-3-yl)-7,7-dimethyl-5,7-dihydro-3H-imidazo[4,5-f]indol-6-one], 0.1 to 1 µM.
Compound `O=C1Nc2cc3nc(-c4n[nH]c5ccccc45)[nH]c3cc2C12CCCC2` [Example 9, 2-(1H-indazol-3-yl)-spiro[7,7-cyclopentan-5,7-dihydro-3H-imidazo[4,5-f]indol]-6-one] displayed an IC50 of 0.1 to 1 µM.
Consider `CC1C(=O)Nc2cc3[nH]c(-c4n[nH]c5ccccc45)nc3cc21` (stereo not drawn) [Example 11, 2-(1H-Indazol-3-yl)-7-methyl-5,7-dihydro-3H-imidazo[4,5-f]indol-6-one], for which the concentration for half-maximal inhibition (IC50) fell in the range of 0.1 to 1 µM.
For `CCC1C(=O)Nc2cc3nc(-c4[nH]nc5ccccc45)[nH]c3cc21` (stereo not drawn) [Example 13, 7-Ethyl-2-(1H-indazol-3-yl)-5,7-dihydro-3H-imidazo[4,5-f]indol-6-one], the IC50 lay in the range of 0.1 to 1 µM.
With `C=CCCN1C(=O)C(C)(C)c2cc3nc(-c4n[nH]c5ccccc45)[nH]c3cc21` [Example 15, 5-But-3-enyl-2-(1H-indazol-3-yl)-7,7-dimethyl-5,7-dihydro-3H-imidazo[4,5-f]indol-6-one] the figure was 0.1 to 1 µM; with `COCCOCCN1C(=O)C(C)(C)c2cc3nc(-c4n[nH]c5ccccc45)[nH]c3cc21` [Example 17, 2-(1H-Indazol-3-yl)-5-[2-(2-methoxy-ethoxy)-ethyl]-7,7-dimethyl-5,7-dihydro-3H-imidazo[4,5-f]indol-6-one], 0.1 to 1 µM.
The result for `CC1(C)C(=O)N(CCCN2CCCCC2)c2cc3[nH]c(-c4n[nH]c5ccccc45)nc3cc21` [Example 19, 2-(1H-Indazol-3-yl)-7,7-dimethyl-5-(3-piperidin-1-yl-propyl)-5,7-dihydro-3H-imidazo[4,5-f]indol-6-one] reads 0.1 to 1 µM; that for `CN(C)CCCN1C(=O)C(C)(C)c2cc3nc(-c4n[nH]c5ccccc45)[nH]c3cc21` [Example 21, 5-(3-Dimethylamino-propyl)-2-(1H-indazol-3-yl)-7,7-dimethyl-5,7-dihydro-3H-imidazo[4,5-f]indol-6-one], 0.1 to 1 µM.
The result for `CCOC(=O)CN1C(=O)C(C)(C)c2cc3nc(-c4n[nH]c5ccccc45)[nH]c3cc21` [Example 23, [2-(1H-Indazol-3-yl)-7,7-dimethyl-6-oxo-6,7-dihydro-3H-imidazo[4,5-f]indol-5-yl]-acetic acid ethyl ester] reads 0.1 to 1 µM; that for `CC1(C)C(=O)N(CC#N)c2cc3[nH]c(-c4n[nH]c5ccccc45)nc3cc21` [Example 24, [2-(1H-Indazol-3-yl)-7,7-dimethyl-6-oxo-6,7-dihydro-3H-imidazo[4,5-f]indol-5-yl]-acetonitrile], 0.1 to 1 µM.
Compound `CC1(C)C(=O)N(Cc2ccccc2)c2cc3[nH]c(-c4n[nH]c5ccccc45)nc3cc21` [Example 26, 5-Benzyl-2-(1H-indazol-3-yl)-7,7-dimethyl-5,7-dihydro-3H-imidazo[4,5-f]indol-6-one] came in with an IC50 of 0.1 to 1 µM.
The result for `CC1(C)C(=O)N(Cc2ccc(S(C)(=O)=O)cc2)c2cc3[nH]c(-c4n[nH]c5ccccc45)nc3cc21` [Example 27, 2-(1H-Indazol-3-yl)-5-(4-methanesulfonyl-benzyl)-7,7-dimethyl-5,7-dihydro-3H-imidazol[4,5-f]indol-6-one] reads 0.1 to 1 µM.
`CC1(C)C(=O)N(CCO[Si](C)(C)C(C)(C)C)c2cc3[nH]c(-c4n[nH]c5ccccc45)nc3cc21` [Example 28, 5-[2-(tert-Butyl-dimethyl-silanyloxy)-ethyl]-2-(1H-indazol-3-yl)-7,7-dimethyl-5,7-dihydro-3H-imidazo[4,5-f]indol-6-one] displayed an IC50 of 0.1 to 1 µM.
With `CC1(C)C(=O)N(CCO)c2cc3[nH]c(-c4n[nH]c5ccccc45)nc3cc21` [Example 34, 5-(2-Hydroxy-ethyl)-2-(1H-indazol-3-yl)-7,7-dimethyl-5,7-dihydro-3H-imidazo[4,5-f]indol-6-one] the figure was 0.1 to 1 µM.
In the case of `CC1(C)C(=O)N(CC(O)CO)c2cc3[nH]c(-c4n[nH]c5ccccc45)nc3cc21` (stereo not drawn) [Example 35, 5-(2,3-Dihydroxy-propyl)-2-(1H-indazol-3-yl)-7,7-dimethyl-5,7-dihydro-3H-imidazo [4,5-f]indol-6-one], the IC50 lay in the range of 0.1 to 1 µM.
The result for `CC1(C)C(=O)N(CC(=O)O)c2cc3[nH]c(-c4n[nH]c5ccccc45)nc3cc21` [Example 36, [2-(1H-Indazol-3-yl)-7,7-dimethyl-6-oxo-6,7-dihydro-3H-imidazo[4,5-f]indol-5-yl]-acetic acid] reads 1 to 10 µM; that for `CC1(C)C(=O)N(CC(N)=O)c2cc3[nH]c(-c4n[nH]c5ccccc45)nc3cc21` [Example 37, 2-[2-(1H-Indazol-3-yl)-7,7-dimethyl-6-oxo-6,7-dihydro-3H-imidazo[4,5-f]indol-5-yl]-acetamide], 0.1 to 1 µM.
With `CC1(C)C(=O)N(CC(=O)NCc2ccccc2)c2cc3[nH]c(-c4n[nH]c5ccccc45)nc3cc21` [Example 39, N-Benzyl-2-[2-(1H-indazol-3-yl)-7,7-dimethyl-6-oxo-6,7-dihydro-3H-imidazo[4,5-f]indol-5-yl]-acetamide], the IC50 was in the range of 0.1 to 1 µM.
With `CC1(C)C(=O)N(CC(=O)N2CCOCC2)c2cc3[nH]c(-c4n[nH]c5ccccc45)nc3cc21` [Example 40, 2-(1H-Indazol-3-yl)-7,7-dimethyl-5-(2-morpholin-4-yl-2-oxo-ethyl)-5,7-dihydro-3H-imidazo[4,5-f]indol-6-one] the figure was 0.1 to 1 µM.
With `CC1(C)C(=O)N(CC(=O)Nc2ccccc2)c2cc3[nH]c(-c4n[nH]c5ccccc45)nc3cc21` [Example 43, 2-[2-(1H-Indazol-3-yl)-7,7-dimethyl-6-oxo-6,7-dihydro-3H-imidazo[4,5-f]indol-5-yl]-N-phenyl-acetamide], the IC50 was in the range of 0.1 to 1 µM.
The result for `CC1(C)C(=O)N(CC(=O)NO)c2cc3[nH]c(-c4n[nH]c5ccccc45)nc3cc21` [Example 49, N-Hydroxy-2-[2-(1H-indazol-3-yl)-7,7-dimethyl-6-oxo-6,7-dihydro-3H-imidazo[4,5-f]indol-5-yl]-acetamide] reads 1 to 10 µM; that for `CC1(C)C(=O)N(CCN)c2cc3[nH]c(-c4n[nH]c5ccccc45)nc3cc21` [Example 52, 5-(2-Amino-ethyl)-2-(1H-indazol-3-yl)-7,7-dimethyl-5,7-dihydro-3H-imidazo[4,5-f]indol-6-one], 0.1 to 1 µM.
